From ChEMBL document CHEMBL1157293, “Sylviside, a diterpene glucoside derivative from Gnaphalium sylvaticum” (J Nat Prod, 2006)

Columns and labels:
HeLa [1] = experiment: Cytotoxicity against wild type human HeLa cells by MTT assay; format: functional, cell-based
HeLa [2] = experiment: Cytotoxicity against MDR1-G185 overexpressing human HeLa cells by MTT assay; format: functional, cell-based

Structure (SMILES): C=C1[C@@H]2CC[C@H]3[C@]4(C)C[C@H](O[C@@H]5O[C@H](CO)[C@@H](O)[C@H](O)[C@H]5OC(=O)/C(C)=C\C)CC(C(=O)O)(C(=O)O)[C@H]4CC[C@]3(C2)[C@H]1O [SYLVISIDE]
- IC50 (HeLa [1]): 325 µM
- IC50 (HeLa [2]): 1700 µM
